Measurements: patent publication US20260083134A1, “MEANS AND METHODS FOR CONTROLLING PATHOGENS AND PESTS IN PLANTS” (APHEA.BIO NV, priority 2020, published 2026)

Experiments:
Type in all cases: cell-based
Fusarium graminearum = conditions: compound identified in active HPLC fraction; active when halo diameter superior to 5 mm
Zymoseptoria tritici = test system: Zymoseptoria tritici
Puccinia striiformis = Puccinia striiformis liquid-based screening assay of extract fractions; conditions: compound identified in active HPLC fraction; active when percentage of inhibition superior to 50%

Compound | Active against: (Fusarium graminearum) | Active against: (Zymoseptoria tritici) | Active against: (Puccinia striiformis)
CCCCCCCCCCCCCC(=O)NCCC[N+](C)(C)CC(=O)[O-] [N-Myristylamidopropyl-N,N-dimethylbetaine] | F. graminearum | Z. tritici | P. striiformis
C[C@@H]1C/C=C/C=C/C=C/C=C/[C@H](O[C@@H]2O[C@H](C)[C@@H](O)[C@H](N)[C@@H]2O)C[C@@H]2O[C@](O)(C[C@@H](O)C[C@H]3O[C@@H]3/C=C/C(=O)O1)C[C@H](O)[C@H]2C(=O)O [Pimaricin/Natamycin, Pimaricin, reference compound] | F. graminearum | Z. tritici | P. striiformis
C=C/C(C)=C/[C@H](C)C(=O)C[C@H](O)CC1CC(=O)NC(=O)C1 [Streptimidone] | F. graminearum | Z. tritici | P. striiformis
Albofungin | F. graminearum | Z. tritici | P. striiformis
Enactin Ia/Ib | F. graminearum | Z. tritici | P. striiformis
Lauramidopropyl betaine | F. graminearum | Z. tritici | P. striiformis
